Reference: the supplement of paper PMC4862054

What was measured:
Conditions in all cases: incubation time: 72 h
MDA-MB-453 [1] = assay: normalised response (% of control), CellTiter-Glo; higher = more viable cells (100 = DMSO, 0 = benzethonium chloride kill control)
Procedure, shortened: (§1)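 Values are normalised signals, each belonging to one concentration of the series. Breast cancer cells (20 µl suspension) were seeded into 384-well plates with compound at 5 concentrations in 10-fold steps over a compound-specific 10,000-fold range and incubated 72 h. Readouts were CellTox Green fluorescence (485/520 nm), then CellTiter-Glo luminescence after 10 min at room temperature, with each plate set to 0.1 % DMSO as 100 and a positive kill control as 0.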

HCC1599 = assay: as above
Procedure, shortened: as §1

HCC1143 = assay: as above
Procedure, shortened: as §1

MDA-MB-231 = assay: as above
Procedure, shortened: as §1

BT-549 = assay: as above
Procedure, shortened: as §1

CAL-120 = assay: as above
Procedure, shortened: as §1

CAL-51 [2] = assay: as above
Procedure, shortened: as §1

SK-BR-3 = assay: as above
Procedure, shortened: as §1

MCF-10A = assay: as above
Procedure, shortened: as §1

CAL-148 [3] = assay: as above
Procedure, shortened: as §1

MDA-MB-436 = assay: as above
Procedure, shortened: as §1

HDQ-P1 [4] = assay: as above
Procedure, shortened: as §1

BT-474 = assay: as above
Procedure, shortened: as §1

DU-4475 [5] = assay: as above
Procedure, shortened: as §1

HCC1937 = assay: as above
Procedure, shortened: as §1

Hs578T = assay: as above
Procedure, shortened: as §1

MFM-223 = assay: as above
Procedure, shortened: as §1

CAL-85-1 [6] = assay: as above
Procedure, shortened: as §1

MDA-MB-468 = assay: as above
Procedure, shortened: as §1

MDA-MB-453 [7] = assay: normalised viability (% of control), CellTiter-Blue; higher = more viable cells (about 100 = DMSO control)
Procedure, shortened: (§2)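 Seeded at 20 µl suspension per well onto compound-loaded 384-well plates, breast cancer cell lines were incubated 72 h. CellTiter-Blue fluorescence at 560/590 nm was then read, with each plate normalised to vehicle (100) and a positive kill control (0). Normalised viability is reported at a single listed concentration of the series.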

CAL-51 [8] = assay: as above
Procedure, shortened: as §2

CAL-148 [9] = assay: as above
Procedure, shortened: as §2

HDQ-P1 [10] = assay: as above
Procedure, shortened: as §2

DU-4475 [11] = assay: as above
Procedure, shortened: as §2

CAL-85-1 [12] = assay: as above
Procedure, shortened: as §2

SMILES: Oc1nc(-c2ccc(C(F)(F)F)cc2)nc2c1CSCC2 [XAV-939] (10000 nM)
- normalised response (MDA-MB-453 [1]): 81.7%
- normalised response (HCC1599): 80.6%
- normalised response (HCC1143): 91.4%
- normalised response (MDA-MB-231): 74.5%
- normalised response (BT-549): 90.5%
- normalised response (CAL-120): 92.8%
- normalised response (CAL-51 [2]): 66.6%
- normalised response (SK-BR-3): 84.5%
- normalised response (MCF-10A): 84.5%
- normalised response (CAL-148 [3]): 94.4%
- normalised response (MDA-MB-436): 91.8%
- normalised response (HDQ-P1 [4]): 86.7%
- normalised response (BT-474): 73%
- normalised response (DU-4475 [5]): 87.3%
- normalised response (HCC1937): 89.7%
- normalised response (Hs578T): 95.9%
- normalised response (MFM-223): 89.4%
- normalised response (CAL-85-1 [6]): 95.8%
- normalised response (MDA-MB-468): 92.1%
- normalised viability (MDA-MB-453 [7]): 71.5%
- normalised viability (CAL-51 [8]): 89.2%
- normalised viability (CAL-148 [9]): 76.9%
- normalised viability (HDQ-P1 [10]): 76.2%
- normalised viability (DU-4475 [11]): 100%
- normalised viability (CAL-85-1 [12]): 82.3%
